Source: ChEMBL document CHEMBL1151978, “Epiquinamide: a poison that wasn't from a frog that was” (J Nat Prod, 2009)
The source made the active and inactive calls. The calls are words filed in the database; no cut-off is given here.

Columns and labels:
[1] = target: T1, Neuronal acetylcholine receptor; alpha4/beta2 (Rattus norvegicus) (UniProt P09483+P12390); experiment: Displacement of [3H]epibatidine from alpha4beta2 nicotinic acetylcholine receptor in rat cerebral cortical membrane up to 100 uM; format: cell membranes
[2] = target: T2, Neuronal acetylcholine receptor; alpha3/beta4 (Rattus norvegicus) (UniProt P04757+P12392); experiment: Inhibition of rat alpha3beta4 nicotinic acetylcholine receptor activation expressed in HEK293 cells assessed as intracellular calcium level up to 100 uM by fluorescence assay; format: cell-based
[3] = target: T2, Neuronal acetylcholine receptor; alpha3/beta4 (Rattus norvegicus); experiment: Inhibition of rat alpha3beta4 nicotinic acetylcholine receptor activation expressed in HEK293 cells assessed as intracellular calcium level at 500 uM by fluorescence assay; format: cell-based
[4] = target: T1, Neuronal acetylcholine receptor; alpha4/beta2 (Rattus norvegicus); experiment: Displacement of [3H]epibatidine from alpha4beta2 nicotinic acetylcholine receptor in rat cerebral cortical membrane at 100 uM; format: cell membranes

O=C(O)[C@@H]1CCCN2CCCC[C@H]12
Activity [1]: inactive
Activity [2]: inactive

O=[N+]([O-])[C@H]1CCCN2CCCC[C@H]12
Activity [3]: inactive
Activity [4]: inactive
